# Measured values: patent US20140315869A1, “THERAPEUTIC USES OF ECTOINE” (BITOP AG, priority 2011, published 2014)
# Experiments:
# human neutrophils = assay: Apoptosis rate of isolated human neutrophil granulocytes (sub-G1 cells, propidium iodide, flow cytometry); type: cell-based; conditions: for prevention of the reduction of the apoptosis rate caused by CNP with or without budenoside / background apoptosis rate: Experiment 7, 1 mM test substance, 16 h; for prevention of the reduction of the apoptosis rate caused by CNP with or without budenoside: young volunteers; for background apoptosis rate: neutrophils from young volunteers
# Method: The effect of ectoine on the apoptosis was investigated by way of human neutrophils. Neutrophils from young, healthy donors (3 male and 2 female) were isolated and treated with the amounts of ectoine (mM) indicated. Treatment was carried out with ectoine alone (open columns) and with 33 μg/ml of CNP (black columns). Ectoine was not administered in the control group (C).
# The apoptotic cells were quantified in the following manner: The neutrophils were suspended in 300 μl of hypotonic solution containing propidium iodide (PI). The fluorescence of PI was determined by means of flow cytometry (FACScan cytometer, BD Biosciences). The results are shown as percentage of hypodiploidal DNA (sub-G1), corresponding to fragmented DNA which is characteristic of apoptotic cells.
# The effect of ectoine on the apoptosis was investigated by way of human neutrophils. Neutrophils of young, healthy donors (3 male and 2 female) were isolated and pretreated for 2 hours with PBS (dark columns) and with 1 mM of ectoine (light columns). Subsequently, treatment took place with 33 μg/ml of carbon nanoparticles (ufCB: ultrafine carbon black), 300 nM LTB4, 20 ng/ml GM CSF or 1 μM of dexamethasone, respectively no treatment with proinflammatory factors. (†: significant difference with respect to control group; *: significant difference with respect to neutrophils treated with proinflammatory factors and PBS only; quantification of the apoptotic cells analogous to Experiment 2).
# The neutrophil granulocytes were pretreated for 2 hours with 1 mM of ectoine resp. PBS following which treatment took place for 16 hours with 33 μg/ml CNP, 300 nM LTB4, 20 ng/ml GMCSF or PBS. […] (dark columns: pretreatment with ectoine; light columns: pretreatment with PBS; *: significant difference with respect to control group without CNP or inflammation mediators; §: significant difference with respect to the treatment without ectoine; quantification of the apoptotic cells analogously to Experiment 2).
# For Experiments 5 to 7 neutrophil granulocytes were obtained from blood samples. Groups 1 and 2 consisted of persons who participated in a current patient study. Male patients (aged 40 to 80 years) with stable COPD history (GOLD III/IV) and healthy control patients from an identical age group.
# The influence of ectoine in combination with the corticosteroid budesonide on the apoptosis rates of neutrophils is illustrated in FIG. 5. Sub-G1-cells were measured after propidium iodide coloration (FACS-flow cytometry). Cells: primary, peripheral neutrophils. Isolation of the neutrophils by Percoll® centrifugation. Cultivation of 2×10^6 neutrophils in the presence of 33 μg/ml CNP, 300 nM LTB4, 20 ng/ml GM-CSF, 1 μM budesonide, 1 mM ectoine and combinations thereof for 16 h. FIG. 5 A: cells cumulated from all samples (n=15), FIG. 5 B: cells from COPD patients (n=5), FIG. 5 C: cells from healthy age control group (n=5), FIG. 5 D: cells from young volunteers (n=5).
# Sub-G1-cells were measured after propidium iodide coloration (FACS-flow cytometry). Cells: primary, peripheral, human neutrophils. Isolation of the neutrophils by Percoll® centrifugation and cultivation of 2×10^6 neutrophils in the presence of 33 μg/ml CNP, 1 μM budesonide, 1 mM ectoine, 1 mM urea, 1 mM ectoine amide and combinations thereof for 16 h. The cells were obtained from young volunteers (group 3), n=5, bud=budenoside. Two additional test substances (urea and the ectoine amide of 2-hydroxy-5-aminobenzoic acid) were examined to check whether they were capable of inhibiting anti-apoptotic effects on neutrophils.
# neutrophils = assay: Neutrophil inflammation reactions in rats with carbon nanoparticles intratracheally administered; type: in vivo
# Source text: Neutrophil inflammation reactions were examined in rats with carbon nanoparticles intratracheally administered. This involved administration both with and without ectoine. […] In the first place, the liberation of cinc-1 is initially due to epithelial cells and macrophages, whereas later on the liberation caused by the great amount of ultimately existing neutrophils dominates.
# It thus follows that ectoine cannot only be used on a preemptive basis but also for the treatment of an already existing inflammation.
# Carbon nanoparticles (CNP, 14 nm, Printex 90, Degussa, Frankfurt, Germany) were suspended in a phosphate buffered salt solution (PBS) by means of ultra-sonic treatment. Similarly, a 0.1 and a 1 mM solution of ectoine was produced in PBS. 0.4 ml of the CNP particle suspension was administered intratracheally to Fisher 344 female rats. Treatment with 0.4 ml of the ectoine solutions, respectively PBS took place after one and two days. The rats were sacrificed on the third day, their lungs purged with 4×5 ml of PBS each. The cells of the individual animals were suspended in 1 ml of PBS and centrifuged. The pellets were washed with PBS once and resuspended in 300 μl of hypotonic solution (0.1% sodium citrate, 0.1% triton×100) containing 50 μg/ml of propidium iodide (PI). To determine the rate of apoptosis a fluorescence measurement was finally performed.
# protein kinase B (Akt) = assay: Akt phosphorylation in human primary peripheral neutrophils (western blot); type: cell-based; conditions: Experiment 6; 1 mM ectoine with 1 μM budesonide, also in the presence of 33 μg/ml CNP, 6 h
# Method: (§1) The influence of ectoine in combination with budenoside on anti-apoptotic signals can be seen from FIG. 6. With selected samples of neutrophils relevant signals were detected via protein kinase B (Akt) and Mcl-1 by measurement of the Akt phosphorylation and the Mcl-1 protein level, with human primary peripheral neutrophils being used as cells. Isolation of the neutrophils by Percoll® centrifugation, the cultivation of 2×10^6 neutrophils in the presence of 33 μg/ml CNP, 1 μM budesonide, 1 mM ectoine and combinations thereof for 6 h. A protein isolation, western blot, luminescence on x-ray films was effected of material from each 3 COPD patients and 3 persons from the corresponding age control group.
# Mcl-1 = Mcl-1 protein level in human primary peripheral neutrophils (western blot); type: cell-based; conditions: Experiment 6; 1 mM ectoine with 1 μM budesonide, also in the presence of 33 μg/ml CNP, 6 h
# Method: as §1
# [1] = ectoine administered repeatedly after inflammation reaction triggered off several times
Compound,"prevention of the reduction of the apoptosis rate caused by CNP with or without budenoside (human neutrophils; 33 μg/ml CNP, 1 μM budesonide)",background apoptosis rate (human neutrophils),effectiveness compared with ectoine (human neutrophils; cf. FIG. 7),amount of neutrophils (neutrophils; [1]),cinc-1 level (neutrophils; [1]),"liberation of cinc-1 (neutrophils; rats, carbon nanoparticles intratracheally with ectoine, after two days)","amount of neutrophils (neutrophils; rats, carbon nanoparticles intratracheally with ectoine, after two days, in comparison to the placebo group)","effect of ectoine given after commencement of the inflammatory reaction (neutrophils; two doses, one and two days after commencement of the inflammatory reaction)","reduction of the apoptosis rate caused by CNP (human neutrophils; Experiment 2, neutrophils from young healthy donors, 33 μg/ml CNP, significant amounts of ectoine)","apoptosis rate reduced by inflammatory stimulants (human neutrophils; Experiment 4, COPD and non-COPD patients, 2 h pretreatment 1 mM ectoine, then 16 h 33 μg/ml CNP, 300 nM LTB4 or 20 ng/ml GMCSF)","anti-apoptotic effect of proinflammatory substances combined with budesonide, with ectoine (human neutrophils; Experiment 5, CNP, LTB4, GM-CSF combined with 1 μM budesonide, 1 mM ectoine)","anti-apoptotic effect of budesonide, with ectoine (human neutrophils; Experiment 5, pretreatment 1 mM ectoine, 1 μM budesonide, no proinflammatory substances, all groups)","compensation of the reduction of the apoptosis rate due to pro-inflammatory factors (human neutrophils; isolated human neutrophil granulocytes, CNP, LTB4 or GM-CSF)","apoptosis rate, ectoine alone (human neutrophils; neutrophils without previous treatment with pro-inflammatory factors)","Akt phosphorylation, ectoine against budesonide effect (protein kinase B (Akt))","Mcl-1 protein level, ectoine against budesonide effect (Mcl-1)"
"NC(N)=O [urea, reference compound]",this could not be achieved,did not have an influence on the background apoptosis rate,–,–,–,–,–,–,–,–,–,–,–,–,–,–
"CC1=NCCC(C(=O)Nc2ccc(O)c(C(=O)O)c2)N1 (stereo not drawn) [2-methyl-1,4,5,6-tetrahydropyrimidine-4-carboxylic acid amide of 2-hydroxy-5-aminobenzoic acid]",able to prevent the reduction of the apoptosis rate,did not have an influence on the background apoptosis rate,effectiveness comparable to ectoine itself,–,–,–,–,–,–,–,–,–,–,–,–,–
"CC1=NCC[C@@H](C(=O)O)N1 [ectoine, (S)-2-methyl-1,4,5,6-tetrahydropyrimidine-4-carboxylic acid]",–,–,–,diminishing of the amount of neutrophils,lowering of the cinc-1 level,reduction of the liberation of cinc-1,significant reduction of the amount of neutrophils,virtually had the same effect as an ectoine administration at the time the inflammatory reaction was triggered,could virtually be eliminated,resulted in the apoptosis rate to be restored significantly,the anti-apoptotic effect was successfully prevented,obviates the anti-apoptotic effect of the budesonide significantly,can be compensated depending on concentration at least partially,did not result in an increase of the apoptosis rate,capable of counteracting this effect,capable of counteracting this effect
